Like-named read-outs stand apart in the source and are kept apart here.
Columns and labels:
U87MG = assay: CellTiter-Glo cell proliferation assay, U87MG; assay type: cell-based, human; conditions: Homo sapiens, U-87 MG
Method: (§1) CellTiter-Glo® Luminescent Cell Viability assay (with Promega CellTiter 96® Luminescent CellTiter-Glo® kit) was used to study the proliferation inhibition by test compounds. Compounds were resuspended in DMSO to make a 25 mM stock suspension. Cells of cancer cell lines or normal tissues were seeded in 96-well plates at 1,500 to 5,000 cells/well overnight. Compounds were 2- or 3-fold diluted serially to obtain 10 concentrations. Then, the drugs were added to the cell wells by Bravo (Agilent) and incubated for 72 hours. The cells were lysed by adding CellTiter-Glo® Reagent (per manufacturer's instructions) and subsequently, the luminescence was read using EnVision® (PerkinElmer).
(§2) The percent of growth was calculated as follows. DMSO-treated cells were employed as vehicle control (High control, HC) and culture medium alone was employed as background (Low control, EC). % growth=100×(Lum sample−Lum EC)/(Lum HC−Lum EC). The ICso was calculated by concentration-response curve fitting using Graphpad Prism.
(§3) Hematological cancer cell lines tested included OCI-AML3, MV-4-11, KG-1, Kasumi-1, K562, THP-1; solid cancer cell lines tested included U87MG, U251, T98G, LN229, A172, H460, H2009, A549; normal cell lines tested included HCN2 and 3T3-L1. […] However, they were not toxic to in vitro cultured normal cells.

T98G = assay: CellTiter-Glo cell proliferation assay, T98G; assay type: cell-based; conditions: Homo sapiens, T98G; Table 11; read-out: Absolute IC50 (μM) T98G
Method: as §1, §2, §3

LN-229 = assay: CellTiter-Glo cell proliferation assay, LN-229; assay type: cell-based; conditions: Homo sapiens, LN-229; Table 11; read-out: Absolute IC50 (μM) LN-229
Method: as §1, §2, §3

U251 = assay: CellTiter-Glo cell proliferation assay, U251; assay type: cell-based; conditions: Homo sapiens, U-251; Table 11; read-out: Absolute IC50 (μM) U251
Method: as §1, §2, §3

HCN2 = assay: CellTiter-Glo cell proliferation assay, HCN2 (normal brain); assay type: cell-based; conditions: for IC50: read-out: HCN2 IC50
Method: as §1, §2, §3

3T3-L1 = assay: CellTiter-Glo cell proliferation assay, 3T3-L1 (normal); assay type: cell-based; conditions: Mus musculus, 3T3-L1; Table 6; read-out: 3T3-L1 IC50
Method: as §1, §2, §3

A-172 = assay: CellTiter-Glo cell viability assay, A-172; assay type: cell-based; conditions: Homo sapiens, Table 6
Method: as §1, §2
The inhibition activity of test compounds was determined in A-172, U87MG and 3T3-L1 cell lines.
A CellTiter-Glo® luminescent cell viability assay was performed s described in Example 1.

HCT116 = assay: Cytotoxicity, cell proliferation assay, HCT116 colon cancer; assay type: cell-based; conditions: Table 8
Method: as §1, §2
(§4) The cytotoxicity of test compounds in brain (HCN2), colon cancer (HCT116) and normal colon cell (C8-B4) lines was determined using the cell proliferation assay as described in Example 19.

C8-B4 = assay: Cytotoxicity, cell proliferation assay, C8-B4; assay type: cell-based; conditions: Table 8
Method: as §1, §2, §4

3T3 = assay: Cytotoxicity, cell proliferation assay, 3T3; assay type: cell-based; conditions: Mus musculus, NIH3T3; Table 9
Method: as §1, §2
The cytotoxicity of test compounds was also determined in glioblastoma (U87MG)), brain (HCN2) and 3T3 cell lines was determined using the cell proliferation assay as described in Example 19.

CRM1 = target: T1, CRM1 (Homo sapiens, UniProt O14980); assay: PD effects by IHC in U87MG-luc orthotopic model, CRM1; assay type: in vivo, mice; conditions: orally three times a week for 2 weeks; vs vehicle control
T1 construct: from tissue; host or cells: U87MG-luc orthotopic xenograft tumours in mouse brain
T1 sequence (O14980 whole entry): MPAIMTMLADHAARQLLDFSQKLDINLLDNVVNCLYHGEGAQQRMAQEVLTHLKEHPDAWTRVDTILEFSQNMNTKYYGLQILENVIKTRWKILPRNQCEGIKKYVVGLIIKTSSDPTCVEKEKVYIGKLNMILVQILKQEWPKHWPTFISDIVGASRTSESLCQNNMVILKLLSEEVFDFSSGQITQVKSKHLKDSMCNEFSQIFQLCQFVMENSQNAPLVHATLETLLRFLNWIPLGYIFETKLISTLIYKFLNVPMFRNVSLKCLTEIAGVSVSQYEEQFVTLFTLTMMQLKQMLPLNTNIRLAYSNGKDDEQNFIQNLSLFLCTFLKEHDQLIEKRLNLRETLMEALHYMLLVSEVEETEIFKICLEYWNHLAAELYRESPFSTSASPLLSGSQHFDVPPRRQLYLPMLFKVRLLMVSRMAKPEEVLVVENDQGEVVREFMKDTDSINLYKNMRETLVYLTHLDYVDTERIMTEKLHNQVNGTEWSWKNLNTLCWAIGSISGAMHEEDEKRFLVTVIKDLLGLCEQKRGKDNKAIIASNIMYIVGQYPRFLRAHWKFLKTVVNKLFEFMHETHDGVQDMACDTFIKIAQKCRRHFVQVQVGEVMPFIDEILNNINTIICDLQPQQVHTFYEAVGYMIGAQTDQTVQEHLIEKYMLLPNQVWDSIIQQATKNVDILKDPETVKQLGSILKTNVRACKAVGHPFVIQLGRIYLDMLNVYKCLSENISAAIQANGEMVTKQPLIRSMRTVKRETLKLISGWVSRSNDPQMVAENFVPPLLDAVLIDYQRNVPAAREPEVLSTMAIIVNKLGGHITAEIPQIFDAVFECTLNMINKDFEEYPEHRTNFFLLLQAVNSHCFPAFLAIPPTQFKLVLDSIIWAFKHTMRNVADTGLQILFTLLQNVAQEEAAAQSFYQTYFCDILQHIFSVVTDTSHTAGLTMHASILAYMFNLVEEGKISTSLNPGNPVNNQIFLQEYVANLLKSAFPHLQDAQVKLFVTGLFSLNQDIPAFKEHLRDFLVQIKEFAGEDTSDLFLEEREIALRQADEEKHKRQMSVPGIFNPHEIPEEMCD
Method: (§5) Based on the bioluminescent signal of tumor, mice were randomly assigned to respective groups using a computer-generated randomization procedure, which included vehicle and compound III-treated groups, respectively, with 5 animals per group. Compound III (20 mg/kg) was given orally 3 times a week (on Day 1, 3, 5) for 2 weeks. Animals for IHC study were euthanized at 6 hours after the last dose and perfused with normal saline followed by fixation with 4% paraformaldehyde. Entire brains containing tumors were collected and kept in fixative for 24 hours before proceeding for paraffin block.

Ki67 = assay: PD effects by IHC in U87MG-luc orthotopic model, Ki67; assay type: in vivo, mice; conditions: orally three times a week for 2 weeks; vs vehicle control
Method: as §5

U87MG cells = assay: Capase-Glo 317 apoptosis assay; assay type: cell-based; conditions: Homo sapiens, U-87 MG, 72 hours
Method: A Capase-Glo® 317 assay was used to determine the apoptosis activity of test compounds in U87MG cells.
Compounds were dissolved in 25 mM DMSO stock solution and serially diluted. DMSO was used as the vehicle control (high control, HC) and culture medium was used as the background (low control LC). The test compounds were applied to plates and spun at 25° C. at 1,000 RPM for 1 min and shaken on a plate shaker for 2 min. Samples (80 nL) of the compounds from the plates were transferred to 384-well cell culture plates using a liquid handler.
Cells were harvested and the cell numbers counted. 40 μL of the cell suspension with the adjusted density was added to 384-well cell culture pates. The final cell density is 1,000 cells/well. Cell culture medium only was used in the low control (LC) samples. The plates were covered with a lid and placed in a 5% CO2 incur at 37° C. for 72 hours.
After incubating for 72 hours, the plates were removed from the incubator and equilibrated at 25° C. for 15 minutes. CellTiter Glo® regen was incubated at 37° C. before the experiments. 40 μL of Capase-Glo® 317 was added into each well to be detected at a 1:1 ratio to culture medium. The plates were then placed at 25° C. for 30 min and read using an EnSpire® Plate Reader.
The % activity remaining was determined using the following formula: % Remaining Activity=[…]×(Lumsample−LumLC)/(LumHC−LUM LC), where HC is obtained from cells treated with 0.1% DMSO only, LC is obtained from culture medium only.

[1] = Pharmacokinetic profile summary; assay type: in vivo, mice or rats; conditions: for AUC / Cmax: po
Method: Blood was collected from mice (n=3, or 5) to contribute to the total of 10 time points (pre-dose, 5 min, 15 min, 30 min, 1 hour, 2 hours, 4 hours, 8 hours, 12 hours and 24 hours). At the designated time points, animals were anaesthetized under isoflurane, and approximately 110 μL of blood per time point was collected via retro-orbital puncture into pre-cooled K2EDTA tubes. Blood samples were put on wet ice and centrifuged (2000 g, 5 min at 4° C.) to obtain plasma within 30 minutes of sample collection. All samples were stored frozen at approximately −80° C. until analysis. Prior to analysis, samples were mixed with internal standard in acetonitrile, vortexed, centrifuged, and supernatant was injected for analysis. Concentration of compounds in plasma was determined using LC-MS-MS instrumentation (API 4000, Triple Quadrupole LC/MS/MS Mass Spectrometer). AUC values were calculated using Phoenix Win Nonlin 6.3 software package, PO-Noncompartmental model 200 (extravascular input).
Following collection, brain tissue was rinsed with cold saline, dried on filter paper, weighed and snap-frozen by placing on dry ice. All samples were stored frozen at approximately −80° C. until analysis. At the time of analysis, brain tissue was homogenized (homogenizing solution PBS, pH 7.4), mixed with internal standard in acetonitrile, vortexed, centrifuged, and supernatant was injected for analysis. Concentration of compounds in plasma was determined using LC-MS-MS instrumentation (API 4000, Triple Quadrupole LC/MS/MS Mass Spectrometer). Plasma samples were treated with the identical method (except homogenization step) and the concentration of compound in each matrix was calculated based on generated standard curves.
The pharmacokinetic profile of test compounds in mice or rats was determined from several test compounds was determined using the methods described in Example 22.

[2] = 25 mg/kg p.o., qod x 3 per week, two weeks; BALB/c Nude mice
in vivo = conditions: female, BALB/c Nude, mouse
A549 = assay: CellTiter-Glo cell proliferation assay, A549; assay type: cell-based; conditions: Homo sapiens, 72 hours, Table 1, read-out: Growth inhibition (IC50)
Method: as §1, §2, §3

H460 = assay: CellTiter-Glo cell proliferation assay, H460; assay type: cell-based; conditions: Homo sapiens, NCI-H460, 72 hours, Table 1, read-out: Growth inhibition (IC50)
Method: as §1, §2, §3

H2009 = assay: CellTiter-Glo cell proliferation assay, H2009; assay type: cell-based; conditions: Homo sapiens, NCI-H2009, 72 hours, Table 1, read-out: Growth inhibition (IC50)
Method: as §1, §2, §3

MV411 = assay: CellTiter-Glo cell proliferation assay, MV411; assay type: cell-based; conditions: Homo sapiens, MV4-11, 72 hours, Table 1, read-out: Growth inhibition (IC50)
Method: as §1, §2, §3

KG1 = assay: CellTiter-Glo cell proliferation assay, KG1; assay type: cell-based; conditions: Homo sapiens, KG-1, 72 hours, Table 1, read-out: Growth inhibition (IC50)
Method: as §1, §2, §3

Kasumi-1 = assay: CellTiter-Glo cell proliferation assay, Kasumi-1; assay type: cell-based; conditions: Homo sapiens, 72 hours, Table 1, read-out: Growth inhibition (IC50)
Method: as §1, §2, §3

OCI-AML3 = assay: CellTiter-Glo cell proliferation assay, OCI-AML3; assay type: cell-based; conditions: Homo sapiens, OCI-AML-3, 72 hours, Table 1, read-out: Growth inhibition (IC50)
Method: as §1, §2, §3

K562 = assay: CellTiter-Glo cell proliferation assay, K562; assay type: cell-based; conditions: Homo sapiens, 72 hours, Table 1, read-out: Growth inhibition (IC50)
Method: as §1, §2, §3

THP-1 = assay: CellTiter-Glo cell proliferation assay, THP-1; assay type: cell-based; conditions: Homo sapiens, 72 hours, Table 1, read-out: Growth inhibition (IC50)
Method: as §1, §2, §3

XPO1 = XPO1 (Homo sapiens, UniProt O14980); assay: REV-GFP translocation assay in U2OS cells; assay type: cell-based; design: endogenous in cells; host or cells: U2OS cells stably expressing REV-GFP (clones from HD Biosciences)
XPO1, sequence (O14980 whole entry): as above
Method: LTD in China, and cells were cultured with growth medium. […] The highest Leptomycin B (LMB) concentration was set to 50 nM and serially diluted as the positive control, while the highest concentrations of other compounds were set to 10 μM. The cells treated with various drugs or DMSO, were incubated at 37° C. and 5% CO2 for 1 h. Then, cells were fixed with 4% formaldehyde for 15 min at room temperature. The cells were washed and stained with 100 μL Hoechst 33342 working solution for 10 min at room temperature in dark, after which the cell fluorescence was imaged with the High-Content Imaging System, ImageXpress® (Molecular Devices) using the 20× objective. The filters were set for Hoechst (350/461 nm) and GFP/FITC (488/509 nm) (wavelength for excitation and emission maxima). The % effect of REV nuclear translocation was calculated with the following formula: % effect=([…]- signals from testing compounds; ILMB-signals of 50 nM LMB group; ICTRL-signals of vehicle control group.

[3] = 10 mg/kg, plasma, 10 mpk, read-out: Cmax (ng/ml) plasma/10 mpk

O=C(/C=C\n1cnc(-c2cc(C(F)(F)F)cc(C(F)(F)F)c2)n1)NNc1cnccn1 [KPT-330, (Z)-3-(3-(3,5-bis(trifluoromethyl)phenyl)-1H-1,2,4-triazol-1-yl)-N′-(pyrazin-2-yl)acrylohydrazide, reference compound]
IC50 (U87MG; Table 6, read-out: U87MG IC50): 129 nM
IC50 (U87MG; Table 9, first value column, read-out: U87MG IC50): 520 nM
IC50 (U87MG; Table 9, second value column, read-out: U87MG IC50): 710 nM
IC50 (T98G): 0.8 µM
IC50 (LN-229): 0.3 µM
IC50 (U251): 1 µM
HCN2 Max % inh (HCN2; Table 8): 99%
IC50 (HCN2; Table 8): 30700 nM
IC50 (HCN2; Table 9): 34200 nM
IC50 (3T3-L1): > 50000 nM
IC50 (A-172): 224 nM
IC50 (HCT116; Homo sapiens, HCT-116): 2130 nM
HCT116 Max % inh (HCT116): 98%
IC50 (C8-B4; C8-B4): 1270 nM
C8-B4 Max % inh (C8-B4): 100%
IC50 (3T3): > 50000 nM
expression of CRM1 in tumors (IHC) (CRM1): significantly decreased
expression of Ki67 in tumors (IHC) (Ki67): significantly decreased
EC50 (U87MG cells): 12600 nM
Emax (U87MG cells; U87MG): 398%
AUC ([1]; plasma, 10 mg/kg, 10 mpk): 8420 ng·h/mL
half-life ([1]; plasma, mice or rats): 1.7 h
Cmax [1, 3]: 2520 ng/mL
survival in MTD study [2]: all mice were dead, or anaesthetized for the weight lost up to 20%
MTD (in vivo): 15 mg/kg

NC(=O)/C(=C/n1cnc(-c2cc(C(F)(F)F)cc(S(F)(F)(F)(F)F)c2)n1)c1cncnc1 [Compound IV, (E)-3-(3-(3-(Pentafluorosulfaneyl)-5-(trifluoromethyl)phenyl)-1H-1,2,4-triazol-1-yl)-2-(pyrimidin-5-yl)acrylamide]
IC50 (U87MG; 72 h, U87MG, 72 hours, Table 1, read-out: Growth inhibition (IC50)): 194 nM
IC50 (A549): 1860 nM
IC50 (H460): 306 nM
IC50 (H2009): 453 nM
IC50 (MV411): 110 nM
IC50 (KG1): 698 nM
IC50 (Kasumi-1): 124 nM
IC50 (OCI-AML3): 341 nM
IC50 (K562): 1750 nM
IC50 (THP-1): 838 nM
Kp ([1]; brain/plasma, 5 mpk/AUC Ratio, read-out: B/P ratio): 0.29
bioavailability ([1]; plasma, oral, mice or rats): 27%
AUC ([1]; plasma, 10 mg/kg, 10 mpk): 1060 ng·h/mL
half-life ([1]; plasma, mice or rats): 2.9 h
Cmax ([1]; 5 mg/kg, 5 mpk, first number of Plasma/brain pair, read-out: Cmax/(ng/mL) Plasma): 276 ng/mL
Cmax ([1]; 5 mg/kg, 5 mpk, second number of Plasma/brain pair, read-out: Cmax/(ng/mL) brain): 68.5 ng/mL
Cmax [1, 3]: 312 ng/mL
EC50 (XPO1; REV-EGFP U2OS cells, 1 h, Table 2, read-out: Rev-GFP/EC50): 0.0148 µM
IC50 (XPO1; Table 10, first (or only) value of the cell): 14.8 nM
EC50 (XPO1; Table 13, read-out: Rev-GFP assay/μM): 0.015 µM

— US11767313B2, “Compounds as nuclear transport modulators and uses thereof” (XWPHARMA LTD., priority 2018, dated 2023)
